Laboratory results reported in patent publication EP4620949A1, “ACKR3 MODULATORS FOR CARDIOVASCULAR OR ANTIPLATELET THERAPY” (Eberhard Karls Universität Tübingen (Medizinische Fakultät), priority 2024, dated 2025).
“And” between values parts separate entries of the source, which are not always exact repeats. Equal values may be shown once.

Assays:
platelets = experiment: Flow cytometry assay of platelet degranulation (P-Selectin surface expression in PRP); type: cell-based, human; conditions: PRP pre-incubated with compound (100 µM), then CRP-XL (1 µg/mL); % ±SEM normalized to CRP-XL-treated vehicle PRP
Method: Platelet Degranulation Studies of Derivatives. Concurrent with the β-Arrestin recruitment potency optimization, the compounds were also tested and developed according to their functional activity. To determine the ability of a compound to modulate platelets, P-Selectin surface expression was measured. P-Selectin is a surface protein involved in cell adhesion mechanisms and can be found on activated platelets. After induction of platelet aggregation in platelet-rich plasma (PRP), treatment with the respective compound should therefore lead to a significant reduction in P-Selectin expression. […]. […]. Similarly, platelet degranulation potency was highly sensitive toward "linker"-changes (Structure C, Table 1). A distinct trend could not be registered. […]. Flow Cytometry Assay. The inhibition of platelet degranulation was determined via flow cytometry experiments. Platelets were treated with collagen-related peptide (CRP-XL, CambCol Laboratories, Cambridge, UK) and the platelets' activation state was determined (Geue, S.; Aurbach, K.; Manke, M.-C.; Manukjan, G.; Münzer, P.; Stegner, D.; Brähler, C.; Walker-Allgaier, B.; Märklin, M.; Borst, C. E.; Quintanilla-Fend, L.; Rath, D.; Geisler, T.; Salih, H. R.; Seizer, P.; Lang, F.; Nieswandt, B.; Gawaz, M.; Schulze, H.; Pleines, I.; Borst, O. Pivotal role of pdk1 in megakaryocyte cytoskeletal dynamics and polarization during platelet biogenesis. Blood 2019, 134, 1847-1858; and Malehmir, M.; Pfister, D.; Gallage, S.; Szydlowska, M.; Inverso, D.; Kotsiliti, E.; Leone, V.; Peiseler, M.; Surewaard, B. G. J.; Rath, D.; Ali, A.; Wolf, M. J.; Drescher, H.; Healy, M. E.; Dauch, D.; Kroy, D.; Krenkel, O.; Kohlhepp, M.; Engleitner, T.; Olkus, A.; Sijmonsma, T.; Volz, J.; Deppermann, C.; Stegner, D.; Helbling, P.; Nombela-Arrieta, C.; Rafiei, A.; Hinterleitner, M.; Rail, M.; Baku, F.; Borst, O.; Wilson, C. L.; Leslie, J.; O'Connor, T.; Wes-ton, C. J.; Chauhan, A.; Adams, D. H.; Sheriff, L.; Teijeiro, A.; Prinz, M.; Bogeska, R.; An-stee, N.; Bongers, M. N.; Notohamiprodjo, M.; Geisler, T.; Withers, D. J.; Ware, J.; Mann, D. A.; Augustin, H. G.; Vegiopoulos, A.; Milsom, M. D.; Rose, A. J.; Lalor, P. F.; Llovet, J. M.; Pinyol, R.; Tacke, F.; Rad, R.; Matter, M.; Djouder, N.; Kubes, P.; Knolle, P. A.; Unger, K.; Zender, L.; Nieswandt, B.; Gawaz, M.; Weber, A.; Heikenwalder, M. Platelet gpibα is a mediator and potential interventional target for nash and subsequent liver cancer. Nat. Med. 2019, 25, 641-655). Briefly, PRP was isolated from peripheral human blood collected in citrate-phosphate-dextrose solution with adenine (CPDA) and diluted with phosphate-buffered saline (PBS) (Sigma Aldrich Co., Ltd., St. Luis, Missouri, USA) supplemented with CaCl2 and MgCl2. PRP (106 platelets /sample) was preincubated with the respective compound (100 µM) for 15 min. Samples were treated with 1 µg/ml CRP-XL (CambCol Laboratories, Cambridge, UK) for 30 min at room temperature in the presence of the respective fluorochrome-conjugated antibody against P-Selectin (CD62P-FITC; Beckman Coulter, Brea, CA, USA). Subsequently, samples were fixed in 0.5% paraformaldehyde and analyzed on a FACS-Calibur flow cytometer (FACS-Caliber flow cytometer, Becton-Dickinson, East Rutherford, NJ, USA). Mean fluorescence intensity (MFI) was used as a quantitative measurement of platelet surface expression.

HEK293 cells = experiment: RealTime-Glo MT cell viability assay; type: cell-based; conditions: concentrations of 1 µM and below, up to 72 h
Method: Cell viability studies. […].
Cell Viability Assay. RealTime-Glo™ MT Cell Viability Assay (Promega Corporation, Madison, WI, USA) was performed using THP1 cells and HEK293 cells as indicated in the manufacturer's manual to measure a compound's cytotoxicity on cells. In brief, in a white solid-bottom 96-well plate cells (5x10^3/well) were seeded and incubated with the respective compounds diluted in DMEM (Gibco, Carlsbad, CA, USA). After cell seeding viability reagent is added. Subsequently, cells were incubated with the compound and viability reagent containing medium at 37 °C, 5% CO2 for 72 h. The luminescence signal was determined after 1, 24, 48, and 72 hours on a GloMax®-Multi Detection System plate reader (Promega Corporation, Madison, Wl, USA).

[1] = Metabolic stability assay in human liver microsomes; type: in vitro ADME
Method: (§1) Metabolic Stability Assay. Pooled liver microsomes from mice (male) and humans (male) were purchased from Sekisui XenoTech, LLC, Kansas City, KS, USA. Metabolic stability assays were performed in the presence of an NADPH-regenerating system consisting of 5 mM glucose-6-phosphate, 5 U/mL glucose-6-phosphate dehydrogenase, and 1 mM NADP^+. Liver microsomes (20 mg/mL), NADPH-regenerating system, and 4 mM MgCl2·6 H2O in 0.1 M TRIS-HCl-buffer (pH 7.4) were preincubated for 5 min at 37 °C and 750 rpm on a shaker. The reaction was started by adding the preheated compound at 10 mM resulting in a final concentration of 0.1 mM. […] The samples were vortexed for 30 s and centrifuged (21910 relative centrifugal force, 4 °C, 20 min). The supernatant was used directly for LC-MS analysis.
(§2) All compound incubations were conducted at least in triplicates. Additionally, a negative control containing BSA (20 mg/mL) instead of liver microsomes and a positive control using Verapamil instead of the compound was performed. A limit of 1% organic solvent during incubation was not exceeded. […]

[2] = Metabolic stability assay in mouse liver microsomes; type: in vitro ADME; conditions: after 60 min
Method: as §1, §2

Kinetic solubility assay = type: physicochemical; conditions: PBS buffer with 1% DMSO, 4 °C, aqueous buffer, kinetic from dmso stock, 1% DMSO, 99% PBS buffer (pH 7.4)
Method: Solubility Assay. A 100 mL flask with phosphate-buffered saline was prepared from NaCl, KCI, Na2HPO4, KH2PO4, and distilled water. The buffer was adjusted to pH 7.4 with HCl. Afterwards, 10mM stock solutions of compounds in DMSO were prepared. 10 µL compound stock solution was added to 990 µL PBS in Eppendorf tubes. As a reference, 10 µL compound stock solution was added to 990 µL HPLC-grade MeOH in Eppendorf tubes. All tubes were centrifuged (16000 relative centrifugal force, 4 °C, 20 min). Subsequently, 600 µL supernatant was extracted carefully and filled into HPLC vials. […] Compounds solubility was calculated by AUC of compound in PBS divided by AUC of reference solution multiplied by concentration of the compound in solution.

For CCCCN(CCCNC(=O)c1ccc(-c2ccccc2)s1)Cc1ccccc1 [Compound 27, N-(3-(benzyl(butyl)amino)propyl)-5-phenylthiophene-2-carboxamide], the P-Selectin expression reduction (platelets) was 77% and 77±6%, the “cell toxicity / tolerability (in words)” value (HEK293 cells) was “tolerated well” and the compound remained ([1]; 60 min) was “Around 69%”. The “metabolic stability (in words)” value ([1]; over the course of 60 min) was “stable”, the compound remained [2] was “around 24%” and the solubility (Kinetic solubility assay) was 10 µg/mL. For the same compound, the solubility (Kinetic solubility assay; average of three independent experiments ± SEM) was 28 ± 4 µM.
